Patent US20240263138A1, “METHODS FOR PREPARING A FOOD INGREDIENT AND COMPOSITIONS PRODUCED THEREBY” (SuperMeat the Essence of Meat Ltd., priority 2021, published 2024)

System: SM ES cells
Assay: Direct differentiation of SM ES cells cultured with oleic acid
Format: cell-based, chicken
Conditions: culturing in the presence of 300 uM, direct differentiation protocol
Protocol: As used herein “direct differentiation protocol” refers to the addition of FAs at high concentrations to a stem cell culture e.g., pluripotent stem cells, (above 25 uM or above 100 uM, when serum is absent or present in the culture) stem cells in order to allow the cells to accumulate fat. […] Next step was to test the ability to control the fatty acid profile of SM ES cells by growing the cells in the presence of certain or several fatty acids (FAs), dependent on the selected edible species.

CCCCCCCC/C=C\CCCCCCCC(=O)O [oleic acid]
proportion of oleic acid (OA) within cells: double
